# Measurements published in the supplement of paper PMC10307832.
# How the values were obtained:
# Assay in all cases: relative viability (nuclei count vs DMSO), 5 days (fraction); higher = more cells survive
# NCI-H441 = system: NCI-H441
# Procedure, shortened: (§1)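 Relative viability equals treated-well nuclei counts divided by vehicle-well nuclei counts. Counts came from 4× images of lung cancer cell lines grown in 1536-well plates for 5 days after pin-tool dosing on the day after seeding. Dosing used one drug alone or a fixed anchor-drug dose plus five library-drug doses (not always all listed) in √10 steps, and values are medians of duplicate plates.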
# NCI-H1437 = system: NCI-H1437
# Procedure, shortened: as §1
# LOU-NH91 = system: LOU-NH91
# Procedure, shortened: as §1
# SW 900 = system: SW 900
# Procedure, shortened: as §1
# CAL-12T = system: CAL-12T
# Procedure, shortened: as §1
# NCI-H3122 = system: NCI-H3122
# Procedure, shortened: as §1
# NCI-H460 = system: NCI-H460
# Procedure, shortened: as §1
# NCI-H1666 = system: NCI-H1666
# Procedure, shortened: as §1
# LK-2 = system: LK-2
# Procedure, shortened: as §1
# BEN = system: BEN
# Procedure, shortened: as §1
# ABC-1 = system: ABC-1
# Procedure, shortened: as §1
# EKVX = system: EKVX
# Procedure, shortened: as §1
# NCI-H727 = system: NCI-H727
# Procedure, shortened: as §1
# PC-14 = system: PC-14
# Procedure, shortened: as §1
# NCI-H2170 = system: NCI-H2170
# Procedure, shortened: as §1
# 201T = system: 201T
# Procedure, shortened: as §1
# HARA = system: HARA
# Procedure, shortened: as §1
# HCC-366 = system: HCC-366
# Procedure, shortened: as §1
structure (smiles),measurement,setting,value
CCN(CC)CCCCNc1ncc2cc(-c3cc(OC)cc(OC)c3)c(NC(=O)NC(C)(C)C)nc2n1 + NC(=O)Nc1cc(-c2cccc(F)c2)sc1C(=O)N[C@H]1CCCNC1 [AZD7762] (partner 0.2 µM),relative viability,NCI-H441; first compound 0.01 µM,1.16
same,relative viability,NCI-H441; first compound 0.03162 µM,1.16
same,relative viability,NCI-H441; first compound 0.1 µM,1.1
same,relative viability,NCI-H441; first compound 0.3162 µM,1.39
same,relative viability,NCI-H441; first compound 1 µM,0.921
same,relative viability,NCI-H1437; first compound 0.01 µM,1.2
same,relative viability,NCI-H1437; first compound 0.03162 µM,1.07
same,relative viability,NCI-H1437; first compound 0.1 µM,1.17
same,relative viability,NCI-H1437; first compound 0.3162 µM,1.17
same,relative viability,NCI-H1437; first compound 1 µM,1.04
same,relative viability,LOU-NH91; first compound 0.01 µM,0.783
same,relative viability,LOU-NH91; first compound 0.03162 µM,0.768
same,relative viability,LOU-NH91; first compound 0.1 µM,0.828
same,relative viability,LOU-NH91; first compound 0.3162 µM,0.845
same,relative viability,LOU-NH91; first compound 1 µM,0.794
same,relative viability,SW 900; first compound 0.01 µM,0.646
same,relative viability,SW 900; first compound 0.03162 µM,0.637
same,relative viability,SW 900; first compound 0.1 µM,0.626
same,relative viability,SW 900; first compound 0.3162 µM,0.538
same,relative viability,SW 900; first compound 1 µM,0.388
same,relative viability,CAL-12T; first compound 0.01 µM,0.594
same,relative viability,CAL-12T; first compound 0.03162 µM,0.564
same,relative viability,CAL-12T; first compound 0.1 µM,0.796
same,relative viability,CAL-12T; first compound 0.3162 µM,0.758
same,relative viability,CAL-12T; first compound 1 µM,0.641
same,relative viability,NCI-H3122; first compound 0.01 µM,1
same,relative viability,NCI-H3122; first compound 0.03162 µM,0.987
same,relative viability,NCI-H3122; first compound 0.1 µM,1.08
same,relative viability,NCI-H3122; first compound 0.3162 µM,0.971
same,relative viability,NCI-H3122; first compound 1 µM,1.06
same,relative viability,NCI-H460; first compound 0.01 µM,0.607
same,relative viability,NCI-H460; first compound 0.03162 µM,0.739
same,relative viability,NCI-H460; first compound 0.1 µM,0.716
same,relative viability,NCI-H460; first compound 0.3162 µM,0.821
same,relative viability,NCI-H460; first compound 1 µM,0.4
same,relative viability,NCI-H1666; first compound 0.01 µM,0.836
same,relative viability,NCI-H1666; first compound 0.03162 µM,0.848
same,relative viability,NCI-H1666; first compound 0.1 µM,0.889
same,relative viability,NCI-H1666; first compound 0.3162 µM,1.12
same,relative viability,NCI-H1666; first compound 1 µM,0.727
same,relative viability,LK-2; first compound 0.01 µM,0.471
same,relative viability,LK-2; first compound 0.03162 µM,0.394
same,relative viability,LK-2; first compound 0.1 µM,0.374
same,relative viability,LK-2; first compound 0.3162 µM,0.276
same,relative viability,LK-2; first compound 1 µM,0.197
same,relative viability,BEN; first compound 0.01 µM,0.669
same,relative viability,BEN; first compound 0.03162 µM,0.61
same,relative viability,BEN; first compound 0.1 µM,0.703
same,relative viability,BEN; first compound 0.3162 µM,0.757
same,relative viability,BEN; first compound 1 µM,0.676
same,relative viability,ABC-1; first compound 0.01 µM,0.766
same,relative viability,ABC-1; first compound 0.1 µM,1.1
same,relative viability,ABC-1; first compound 0.3162 µM,0.795
same,relative viability,ABC-1; first compound 1 µM,0.825
same,relative viability,EKVX; first compound 0.03162 µM,0.585
same,relative viability,EKVX; first compound 0.1 µM,0.643
same,relative viability,EKVX; first compound 0.3162 µM,0.723
same,relative viability,EKVX; first compound 1 µM,0.709
same,relative viability,NCI-H727; first compound 0.01 µM,0.766
same,relative viability,NCI-H727; first compound 0.03162 µM,0.63
same,relative viability,NCI-H727; first compound 0.1 µM,0.677
same,relative viability,NCI-H727; first compound 0.3162 µM,0.791
same,relative viability,NCI-H727; first compound 1 µM,0.667
same,relative viability,PC-14; first compound 0.01 µM,0.352
same,relative viability,PC-14; first compound 0.03162 µM,0.347
same,relative viability,PC-14; first compound 0.1 µM,0.568
same,relative viability,PC-14; first compound 0.3162 µM,0.497
same,relative viability,PC-14; first compound 1 µM,0.316
same,relative viability,NCI-H2170; first compound 0.01 µM,0.865
same,relative viability,NCI-H2170; first compound 0.03162 µM,1.01
same,relative viability,NCI-H2170; first compound 0.1 µM,1
same,relative viability,NCI-H2170; first compound 0.3162 µM,0.953
same,relative viability,NCI-H2170; first compound 1 µM,0.869
same,relative viability,201T; first compound 0.01 µM,0.747
same,relative viability,201T; first compound 0.03162 µM,0.617
same,relative viability,201T; first compound 0.1 µM,0.68
same,relative viability,201T; first compound 0.3162 µM,0.685
same,relative viability,201T; first compound 1 µM,0.758
same,relative viability,HARA; first compound 0.01 µM,0.245
same,relative viability,HARA; first compound 0.03162 µM,0.376
same,relative viability,HARA; first compound 0.1 µM,0.327
same,relative viability,HARA; first compound 0.3162 µM,0.277
same,relative viability,HARA; first compound 1 µM,0.241
same,relative viability,HCC-366; first compound 0.01 µM,0.256
same,relative viability,HCC-366; first compound 0.03162 µM,0.462
same,relative viability,HCC-366; first compound 0.1 µM,0.277
same,relative viability,HCC-366; first compound 0.3162 µM,0.289
same,relative viability,HCC-366; first compound 1 µM,0.247
